In US8071786B2, “Indole compounds useful as serotonin selective agents” (Galenea Corp., priority 2005, dated 2011):
Marks after values point to notes of the source that are not given here.

Tests used:
[1] = Appetite suppression in mice, acute assay (food consumption); type: in vivo; details: for Mean food consumption 60 min. after injection: g (±SEM) Compound / Mean food consumption 90 min. after injection: g (±SEM) Compound: mice deprived of food 18 hours
Procedure: Mice were deprived of food, but not water, for 18 hours. They were then injected i.p. with test compounds dissolved in 0.9% NaCl containing 1 mg per ml ascorbic acid for protection against oxidation. Each mouse was placed in an individual cage for 30 minutes and then presented with a small petri dish containing a gel made from gelatin, powdered milk and sucrose. The dish was weighed at zero time and at 15-minute intervals for the next hour in order to quantitate food consumption. Controls were injected with saline-ascorbic acid; ±fenfluramine was used as an active control. Control consumption generally ranged from 1.5 to 2.0 grams.

[2] = test system: itch-associated scratching induced by serotonin; test: Animal model for OCD: serotonin-induced scratching; type: in vivo, male Swiss-Webster mice; details: for Number of Scratches as Percentage of Control: inducer Serotonin
Procedure: The 5-HT action is at least partly mediated by 5-HT2 receptors in the skin, as shown by blocking with specific antagonists (Yamaguchi, T., Nagasawa, T., Satoh, M., Kuraishi, Y. “Itch-associated Response Induced by Intradermal Serotonin Through 5-HT2 Receptors in Mice” Neurosci. Res. 1999, 35, 77). The effect of test compounds on itch-associated scratching in the mice may indicate their action on 5-HT receptors, and a study was carried out as an animal model for OCD. The subjects were male Swiss-Webster mice, 4-6 weeks old, weighing 25-45 g. Mice were housed 5 per cage, given free access to standard mouse food and water except during experiments, and maintained in a temperature-controlled room (70° F.). Serotonin and all test drugs were made up with ascorbic acid to protect against oxidation. Two mice, one a control, the other experimental, were tested each time. Each mouse was separately placed into a plexiglas box.
Mice were injected subcutaneously between the shoulder blades with either 0.1 ml of serotonin, 0.4 mg per ml in 0.15 M saline plus ascorbic acid, 1 mg/ml, or compound 48-80 (the copolymer product of N-methyl-p-methoxyphenethylamine with formaldehyde), 1.0 mg/ml in saline plus ascorbic acid. Test compounds were injected i.p. 5 minutes before the inducer. The cumulative number of scratches with a hind leg was recorded at 5 minute intervals for 30 minutes. One saline injected control and one test animal were tested together in each assay.

[3] = Appetite suppression in mice, chronic assay (body weight); type: in vivo
Procedure: Mice were injected i.p. at intervals of 2 or 3 days and weighed repeatedly (6 or 7 total injections). Controls were injected with saline. Weighing and injection were carried out between 11 AM and 1 PM.

[4] = target: 5-HT2B (Homo sapiens, UniProt P41595); test: Phosphoinositide hydrolysis functional assay; type: cell-based; parameters: expressed in transfected cells; details: activation of phosphoinositide hydrolysis, transiently expressed receptor
5-HT2B, sequence (P41595 whole entry): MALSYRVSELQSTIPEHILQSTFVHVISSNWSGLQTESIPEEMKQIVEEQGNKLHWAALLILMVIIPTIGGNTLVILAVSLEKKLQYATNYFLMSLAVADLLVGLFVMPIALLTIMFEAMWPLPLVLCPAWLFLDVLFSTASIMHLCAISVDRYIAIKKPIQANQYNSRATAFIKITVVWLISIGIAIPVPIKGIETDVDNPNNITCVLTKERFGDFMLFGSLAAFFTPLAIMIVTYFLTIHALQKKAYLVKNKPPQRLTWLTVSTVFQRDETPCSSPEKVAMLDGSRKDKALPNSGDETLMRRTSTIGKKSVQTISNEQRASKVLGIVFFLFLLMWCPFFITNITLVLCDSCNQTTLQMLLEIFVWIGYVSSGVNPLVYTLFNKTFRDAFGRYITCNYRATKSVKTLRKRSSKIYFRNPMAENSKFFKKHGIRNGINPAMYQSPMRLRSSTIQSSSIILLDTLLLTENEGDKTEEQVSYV
Procedure: (§1) Phosphoinositide hydrolysis assays were performed with stably (5-HT2A, 5-HT2C) or transiently (5-HT2B) expressed receptors plated in 24-well culture plates. Transfected cells were loaded with […] overnight in inositol-free DMEM without serum. The next day, phosphate accumulation assays were performed in a modified Krebs-bicarbonate buffer. Kact (nmol/L) and percent Vmax (relative to 5-HT) values were calculated (Roth, B. L., Shoham, M., Choudhary, M., Khan, N. “Identification of Conserved Aromatic Residues Essential for Agonist Binding and Second Messenger Production at 5-Hydroxytryptamine 2A Receptors” Mol. Pharmacol. 1997, 52, 259; Roth, B. L., Choudhary, M., Khan, N., Uluer, A. “High-affinity Agonist Binding is not Sufficient for Agonist Efficacy at 5-Hydroxytryptamine 2A Receptors: Evidence in Favor of a Modified Ternary Complex Model” J. Pharmacol. Exp. Ther. 1997, 280, 576).
(§2) Functional Assay (EC50) in nM. Data represent mean EC50 values for activation of phospho-inositide hydrolysis in cells expressing human 5-HT2A, 5-HT2B or 5-HT2C-INI receptors, relative to serotonin at 100%. When the standard deviation is given, N≧3.

[5] = target: 5-HT2A (Homo sapiens, UniProt P28223); test: Phosphoinositide hydrolysis functional assay; type: cell-based; parameters: expressed in transfected cells; details: for Functional Assay (EC50) 5-HT2A / EC50: activation of phosphoinositide hydrolysis, stably expressed receptor; for percent Vmax relative to serotonin at 100%, 5-HT2A: value in brackets
5-HT2A, sequence (P28223 whole entry): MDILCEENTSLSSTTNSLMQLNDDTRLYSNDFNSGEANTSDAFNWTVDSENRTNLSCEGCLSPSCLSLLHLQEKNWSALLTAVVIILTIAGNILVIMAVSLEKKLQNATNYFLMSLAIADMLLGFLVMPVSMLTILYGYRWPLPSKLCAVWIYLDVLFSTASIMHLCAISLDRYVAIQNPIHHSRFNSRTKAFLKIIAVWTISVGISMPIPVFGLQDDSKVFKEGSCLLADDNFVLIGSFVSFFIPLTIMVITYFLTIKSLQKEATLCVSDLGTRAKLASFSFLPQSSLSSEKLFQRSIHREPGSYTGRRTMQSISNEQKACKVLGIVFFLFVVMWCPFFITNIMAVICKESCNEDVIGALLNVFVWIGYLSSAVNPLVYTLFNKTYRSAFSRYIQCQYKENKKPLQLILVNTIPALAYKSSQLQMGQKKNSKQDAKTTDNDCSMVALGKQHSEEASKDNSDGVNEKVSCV
Procedure: as §1, §2

[6] = target: T1, human 5-HT2C-INI (Homo sapiens, UniProt P28335); test: Phosphoinositide hydrolysis functional assay; type: cell-based; details: for Functional Assay (EC50) 5-HT2C / EC50: activation of phosphoinositide hydrolysis, stably expressed receptor; for Emax: value in brackets, read-out: percent Vmax relative to serotonin at 100%, 5-HT2C (converted)
T1 construct: expressed in transfected cells
T1 sequence (P28335 33-458): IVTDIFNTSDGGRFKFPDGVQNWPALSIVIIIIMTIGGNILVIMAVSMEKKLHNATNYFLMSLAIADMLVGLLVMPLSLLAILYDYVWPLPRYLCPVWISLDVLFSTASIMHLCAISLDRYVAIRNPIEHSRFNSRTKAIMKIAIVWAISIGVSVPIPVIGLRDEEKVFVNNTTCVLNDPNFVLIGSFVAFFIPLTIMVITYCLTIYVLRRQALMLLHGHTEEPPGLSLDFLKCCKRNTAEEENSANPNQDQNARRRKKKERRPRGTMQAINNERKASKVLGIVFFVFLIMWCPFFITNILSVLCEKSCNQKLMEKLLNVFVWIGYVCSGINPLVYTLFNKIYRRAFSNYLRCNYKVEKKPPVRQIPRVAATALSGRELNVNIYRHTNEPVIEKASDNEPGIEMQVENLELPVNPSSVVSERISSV
Procedure: as §1, §2

[7] = 10 mg/kg i.p. 5 minutes before inducer Serotonin
[8] = dose cell empty (10 mg/kg printed on the Saline line above), i.p. at intervals of 2 or 3 days
[9] = 20 mg/kg i.p. at intervals of 2 or 3 days

CN(C)CCc1cn(S(C)(=O)=O)c2cc(F)cc(O)c12
melting point: 184 to 186 °C

CN(C)CCc1cn(S(C)(=O)=O)c2c(F)ccc(O)c12
melting point: 181 to 183 °C

CC(C)n1cc(CCN(C)C)c2c(O)ccc(F)c21
melting point: 108 to 110 °C

CCNC(C)Cc1cccc(C(F)(F)F)c1 (centres unmarked) [+/−Fenfluramine, Fenfluramine, reference compound]
% of Control (food consumption 60 min. after injection) ([1]; 3 mg/kg i.p.): 95%
% of Control (food consumption 90 min. after injection) ([1]; 3 mg/kg i.p.): 95%
Mean food consumption 60 min. after injection: g (±SEM) Compound ([1]; 3 mg/kg i.p.): 1.2 (.12) g
Mean food consumption 90 min. after injection: g (±SEM) Compound ([1]; 3 mg/kg i.p.): 1.60 (.14) g
% of Control (food consumption 60 min. after injection) ([1]; 5 mg/kg i.p.): 61%
% of Control (food consumption 90 min. after injection) ([1]; 5 mg/kg i.p.): 67%
Mean food consumption 60 min. after injection: g (±SEM) Compound ([1]; 5 mg/kg i.p.): 0.90 (.04)* g
Mean food consumption 90 min. after injection: g (±SEM) Compound ([1]; 5 mg/kg i.p.): 1.18 (.17)* g
% of Control (food consumption 60 min. after injection) ([1]; 10 mg/kg i.p.): 30%
% of Control (food consumption 90 min. after injection) ([1]; 10 mg/kg i.p.): 35%
Mean food consumption 60 min. after injection: g (±SEM) Compound ([1]; 10 mg/kg i.p.): 0.41 (.11)* g
Mean food consumption 90 min. after injection: g (±SEM) Compound ([1]; 10 mg/kg i.p.): 0.56 (.13)* g
Average Number of Scratches 30 min. after injection [2, 7]: 12.8*
Number of Scratches as Percentage of Control ([2]; 10 mg/kg i.p.): 6.5%
Day 7 % Δ from starting weight [3, 8]: −9.54* %
Day 7 Difference within same group [3, 8]: -4.74 g
Day 14 % Δ from starting weight [3, 8]: −10.7* %
Day 14 Difference within same group [3, 8]: -5.32 g

CCCCn1cc(CCN(C)C)c2c(O)ccc(F)c21 [Compound O-4205, 3-(2-Dimethylaminoethyl)-7-fluoro-1-butyl-1H-indol-4-ol]
Functional Assay (EC50) 5-HT2B [4]: Inactive
Functional Assay (EC50) 5-HT2A [5]: Inactive
Functional Assay (EC50) 5-HT2C [6]: inactive
melting point: 87 to 90 °C

CN(C)CCc1cn(C)c2cc(F)cc(O)c12 [Compound O-4244, 3-(2-Dimethylaminoethyl)-6-fluoro-1-methyl-1H-indol-4-ol]
Functional Assay (EC50) 5-HT2B [4]: Inactive
EC50 [5]: 0.55 nM
percent Vmax relative to serotonin at 100%, 5-HT2A [5]: 61%
EC50 [6]: 0.66 nM
Emax [6]: 75%
melting point: 132 to 134 °C

CCn1cc(CCN(C)C)c2c(O)cc(F)cc21 [Compound O-4284, 3-(2-Dimethylaminoethyl)-6-fluoro-1-ethyl-1H-indol-4-ol]
Functional Assay (EC50) 5-HT2B [4]: Inactive
EC50 [5]: 2.9 nM
percent Vmax relative to serotonin at 100%, 5-HT2A [5]: 73%
EC50 [6]: 0.54 nM
Emax [6]: 73%

CCCn1cc(CCN(C)C)c2c(O)cc(F)cc21 [Compound O-4285, 3-(2-Dimethylaminoethyl)-6-fluoro-1-propyl-1H-indol-4-ol]
Functional Assay (EC50) 5-HT2B [4]: Inactive
EC50 [5]: 166 nM
percent Vmax relative to serotonin at 100%, 5-HT2A [5]: 63%
EC50 [6]: 131 nM
Emax [6]: ~75%
melting point: 104 to 106 °C

CCCCn1cc(CCN(C)C)c2c(O)cc(F)cc21 [Compound O-4286, 3-(2-Dimethylaminoethyl)-6-fluoro-1-butyl-1H-indol-4-ol]
Functional Assay (EC50) 5-HT2B [4]: Inactive
Functional Assay (EC50) 5-HT2A [5]: Inactive
Functional Assay (EC50) 5-HT2C [6]: inactive
melting point: 92 to 95 °C

CCCn1cc(CCN(C)C)c2c(OP(=O)(O)O)ccc(F)c21 [Compound O-4309, 3-(2-Dimethylaminoethyl)-7-fluoro-1-propyl-1H-indol-4-phosphate]
% of Control (food consumption 60 min. after injection) ([1]; 10 mg/kg i.p.): 41%
% of Control (food consumption 90 min. after injection) ([1]; 10 mg/kg i.p.): 64%
Mean food consumption 60 min. after injection: g (±SEM) Compound ([1]; 10 mg/kg i.p.): 0.28 (.06)* g
Mean food consumption 90 min. after injection: g (±SEM) Compound ([1]; 10 mg/kg i.p.): 0.68 (0.1)* g
% of Control (food consumption 60 min. after injection) ([1]; 20 mg/kg i.p.): 9%
% of Control (food consumption 90 min. after injection) ([1]; 20 mg/kg i.p.): 18%
Mean food consumption 60 min. after injection: g (±SEM) Compound ([1]; 20 mg/kg i.p.): .07 (.02)* g
Mean food consumption 90 min. after injection: g (±SEM) Compound ([1]; 20 mg/kg i.p.): 0.22 (.05)* g
Average Number of Scratches 30 min. after injection ([2]; 2.5 mg/kg i.p. 5 minutes before inducer Serotonin): 181.4
Number of Scratches as Percentage of Control ([2]; 2.5 mg/kg i.p.): 97.4%
Average Number of Scratches 30 min. after injection ([2]; 5 mg/kg i.p. 5 minutes before inducer Serotonin): 89.6
Number of Scratches as Percentage of Control ([2]; 5 mg/kg i.p.): 17.8%
Average Number of Scratches 30 min. after injection [2, 7]: 8.8
Number of Scratches as Percentage of Control ([2]; 10 mg/kg i.p.): 1.6%
Day 7 % Δ from starting weight [3, 9]: −2.3* %
Day 7 Difference within same group [3, 9]: -1.20 g
Day 14 % Δ from starting weight [3, 9]: −6.03* %
Day 14 Difference within same group [3, 9]: -3.20 g

CC(C)n1cc(CCN(C)C)c2c(O)cc(F)cc21 [Compound O-4310, 3-(2-Dimethylaminoethyl)-6-fluoro-1-isopropyl-1H-indol-4-ol]
Functional Assay (EC50) 5-HT2B [4]: Inactive
EC50 [5]: 5 nM
percent Vmax relative to serotonin at 100%, 5-HT2A [5]: 89%
EC50 [6]: 592 nM
Emax [6]: ~50%

CCS(=O)(=O)n1cc(CCN(C)C)c2c(O)cc(F)cc21 [Compound O-4312, 3-(2-Dimethylaminoethyl)-6-fluoro-1-ethylsulfonyl-1H-indol-4-ol]
Functional Assay (EC50) 5-HT2B [4]: Inactive
Functional Assay (EC50) 5-HT2A [5]: inactive
Functional Assay (EC50) 5-HT2C [6]: inactive

CNCCC(Oc1ccc(C(F)(F)F)cc1)c1ccccc1 (centres unmarked) [Fluoxetine, reference compound]
Average Number of Scratches 30 min. after injection [2, 7]: 15
Number of Scratches as Percentage of Control ([2]; 10 mg/kg i.p.): 4.1%
